Results from patent US20170088878A1, “METHOD FOR THE GENERATION OF CHEMICAL LIBRARIES” (ETH ZURICH, priority 2014, published 2017).

Target: T1, HCV protease (Hepatitis C virus genotype 1a, UniProt P27958)
T1 construct: purchased ProteinOne
Experiment: biochemical
Experimental: The HCV protease assay kits were purchased from ProteinOne and experiments were performed according to the manual provided.
Assay solution (100 μL) was added to each well by a multichannel pipette (Eppendorf Research) and the fluorescence signals were recorded immediately.
Fluorescence signals were recorded at 90 min. The experiment was repeated in triplicate. IC50 was calculated via nonlinear regression using the software package GraphPad Prism 5.

T1 sequence (P27958 1027-1208, other chains not shown): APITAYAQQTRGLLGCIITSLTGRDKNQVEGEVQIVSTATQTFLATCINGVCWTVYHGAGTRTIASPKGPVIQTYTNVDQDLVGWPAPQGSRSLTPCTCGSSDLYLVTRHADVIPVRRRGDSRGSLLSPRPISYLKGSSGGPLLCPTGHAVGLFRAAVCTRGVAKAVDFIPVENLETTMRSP

## CC(C)(C)OC(=O)CC[C@@H](CC(=O)C(=O)NCc1ccc(Cl)cc1)NC(=O)C[C@@H](NC(=O)C[C@@H](NC(=O)C[C@@H](NC(=O)CCC(=O)O)C1CCCCC1)C1CCCCC1)C1CCCCC1 [I^3-M^5-M^5-M^5-T^4]
  IC50: 1 µM
